Like-named read-outs stand apart in the source and are kept apart here.
Tests used:
Bet_v_1 [1] = biological target: T1, Bet_v_1 (Betula pendula, UniProt P15494); settings: read-out: K d of ANS, previously published; cited from earlier work
T1 construct: made in house
T1 sequence (P15494 1-160): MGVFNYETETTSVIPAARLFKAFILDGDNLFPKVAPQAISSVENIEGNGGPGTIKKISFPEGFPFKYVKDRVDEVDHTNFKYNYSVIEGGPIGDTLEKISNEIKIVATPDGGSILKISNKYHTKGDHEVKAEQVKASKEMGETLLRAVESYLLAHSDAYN

Bet v 1 / human legumain = biological target: T2, Bet v 1 / human legumain (Betula pendula, UniProt P15494); experiment: Bet v 1 in vitro proteolytic degradation assay with legumain; format: biochemical; settings: Bet v 1 20 µM, ligand 100 µM, legumain 2 µM, pH 5.0, 0-24 h, SDS-PAGE
T2 construct: made in house
T2 sequence (P15494 2-160 limits assumed): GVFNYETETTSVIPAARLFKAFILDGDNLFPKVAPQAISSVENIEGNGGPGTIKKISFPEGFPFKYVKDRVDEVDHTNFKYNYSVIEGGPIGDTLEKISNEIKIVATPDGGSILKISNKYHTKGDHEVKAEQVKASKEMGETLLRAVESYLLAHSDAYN
Description: (§1) The endolysosomal degradation assay was performed with ligand‐bound (either DOC, PPE1, or Q3OS in 10× molar excess) and Bet_v_1 without ligands (apo‐Bet_v_1) as previously described.21 Recombinant human cathepsin S and human legumain were used in proteolytic degradation assays. Experimental details are described in the Appendix [Link], [Link].
(§2) Recombinant human cathepsin S and human legumain were heterologously expressed and purified as described previously.^9,10 Bet v 1 (20 µM) was incubated with ligand (100 µM) in digestion buffer (0.1 M sodium acetate, pH 5.0, 0.1 M sodium chloride, 5 mM EDTA, and 2 mM DTT) at room temperature prior to the addition of cathepsin S (1 µM) or legumain (2 µM). […] At each time point, the reaction was halted by the addition of E64 (for cathepsin S) or YVAD-CMK (for legumain) at a final concentration of 50 µM, and analyzed by SDS-PAGE. Control reactions without the addition of protease were performed. The generated peptides were analyzed using mass spectrometry.

[2] = biological target: T3, Bet v 1 / human cathepsin S (Betula pendula, UniProt P15494); experiment: Bet v 1 in vitro proteolytic degradation assay with cathepsin S; format: biochemical; settings: Bet v 1 20 µM, ligand 100 µM, cathepsin S 1 µM, pH 5.0, 0-24 h, SDS-PAGE
T3 construct: made in house
T3 sequence (P15494 2-160 limits assumed): T2 sequence (P15494 2-160 limits assumed)
Description: as §1, §2

Bet_v_1 [3] = biological target: T1, Bet_v_1; experiment: Surface acoustic wave (SAW) interaction studies, determination of Kd; format: binding
Excerpt: (§3) Surface acoustic wave (SAW) technology and NMR spectroscopy were used to observe the interaction of Bet_v_1 with the selected compounds, including determination of the dissociation constant (K d). The influence of ligand binding on the secondary structure elements and the thermal stability of Bet_v_1 was monitored using circular dichroism (CD, JASCO J‐815 spectropolarimeter, Jasco) and Fourier transform infrared (FTIR) spectroscopy (Tensor II FTIR system, Bruker Optics Inc). A detailed description of these methods is available (Appendix [Link], [Link]).
To assess the interactions between Bet_v_1 and Q3OS, DOC, PPE1, LTA, or LPS, we determined the dissociation constants (K d) using SAW binding assays (Table 1, Figure S1), a more quantitative approach than previously described qualitative assays.11, 25 In addition, the LPS‐substructure Kdo2‐Lipid A (Kdo2) was used for binding studies, due to its more homogenous structure but similar immune stimulatory activity when compared to native LPS.
For the determination of the affinity constant Kd, we used surface acoustic wave (SAW) technology. The interaction of the six ligands with Bet v 1 was investigated using a sam® 5BLUE biosensor instrument (Nanotemper, Munich, Germany). Bet v 1 was immobilized in PBS on the surface of a SAW CM-Dextran 3D sensor chip. […] For calculating the affinity constant Kd, different concentrations of the ligands dissolved in a 5 mM sodium phosphate buffer, pH 7.4, were applied to the Bet v 1-coupled chip. Depending on the ligand, the concentration range of the injected ligand varied between 5 µM and 500 µM. For the removal of residual ligand between the sample injections, the chip was washed with regeneration buffer (10 mM citric acid buffer, pH 2.8). The recorded SAW phase changes were analyzed using the software TraceDrawer 1.7 (Ridgeview Instruments, Uppsala, Sweden). The affinity constant Kd was calculated by kinetic evaluation and affinity/EC50 estimation. For kinetic evaluation, an OneToOne curve fit was chosen to match the raw data. Experiments were performed with two coated chips in duplicate, and the coupling efficiency was evaluated using a mouse monoclonal anti-Bet v 1 antibody.

Bet_v_1 [4] = biological target: T1, Bet_v_1; experiment: NMR spectroscopy (1H-15N HSQC) binding confirmation; settings: for NMR (binding confirmation, K d): 15N-labeled Bet v 1, direct measurement of Kd prevented by intermediate exchange; for specific binding to Bet v 1 (1H-15N HSQC spectra): absence vs presence of compound
Excerpt: as §3
To validate the interactions determined by SAW, we used NMR spectroscopy to test the specific binding of PPE1, LTA, LPS, and Kdo2 to Bet_v_1 (Table 1, Figure S2). […] The commercially available PPA1 was used as a substitute for PPE1 to identify the phytoprostane binding site(s).
The NMR data were acquired with either a 600 or 800 MHz Agilent DD2 spectrometer with a cryogenically cooled probe using the pulse sequence gNhsqc. Bet v 1 assignments were taken from.^2 The experiments were performed under the following conditions: LTA: 45 µM Bet v 1 and 300 µM LTA in PBS, 10% ^2H2O, 60 µM DSS; PPE1: 25 µM Bet v 1 and 2 µM PPE1 in PBS, 5% ^2H-(d6) DMSO, 10% ^2H2O, 60 µM DSS; PPA1: 100 µM Bet v 1 and 302 µM PPA1 (Cayman Chemical, MI, USA) in PBS, 8.7% ^2H-(d6) DMSO, 10% ^2H2O, 60 µM DSS; LPS: 100 µM Bet v 1 and 400 µM LPS in PBS pH 7.4, 10% ^2H2O, 60 µM DSS. Kdo2: 100 µM Bet v 1 and 422 µM Kdo2 in PBS pH 7.0, 10% ^2H2O, 8.6% ^2H-(d6) DMSO, 60 µM DSS.

cathepsin S = biological target: T4, cathepsin S (Homo sapiens, UniProt P25774); experiment: Enzymatic activity assay, fluorogenic substrate Z-VVR-AMC; format: biochemical
T4 construct: made in house
T4 sequence (P25774 115-331): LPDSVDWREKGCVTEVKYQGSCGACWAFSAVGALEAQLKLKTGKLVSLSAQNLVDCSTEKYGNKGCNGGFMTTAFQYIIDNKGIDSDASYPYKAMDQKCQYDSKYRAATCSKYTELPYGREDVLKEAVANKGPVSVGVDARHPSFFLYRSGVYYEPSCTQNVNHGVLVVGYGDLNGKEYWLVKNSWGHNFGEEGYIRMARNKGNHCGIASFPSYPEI
Description: To evaluate the influence of Bet_v_1 ligands on cathepsin S and legumain activities, 10 nmol/L of protease was incubated with 100 µmol/L of ligand (unless otherwise stated) and 50 µmol/L of fluorogenic substrate in digestion buffer (0.1 mol/L sodium acetate pH 5.0, 0.1 mol/L sodium chloride, 5 mmol/L EDTA, and 2 mmol/L DTT), as described in the Appendix [Link], [Link]. The effect of birch pollen extract (BPE) (20‐200 µg/mL) on the cathepsin S and legumain activities was assessed in parallel. The inhibitory effect of PPE1 was assessed by replacing DTT with 0.5 mmol/L TCEP. Activities of recombinant rat cathepsin B (provided by Dr Lukas Mach) and papain (Merck) at 10 nmol/L were assayed using Z‐FR‐AMC (Bachem) as a fluorogenic substrate.
For the detection of cathepsin or legumain activities in the microsomal fraction, 8 µg of microsomal extract was incubated with 50 µM fluorogenic substrate with or without inhibitor in assay buffer (100 mM citrate pH 4.8 and 2 mM DTT). The enzymatic reactions were carried out in a 50 µL reaction volume in a 96-half-well black flat bottom assay plate (Corning Inc., Corning, NY, USA) at 37°C. The fluorescence signal was recorded using a Tecan Infinite-200 plate reader (Tecan, Männedorf, Switzerland) at an excitation wavelength of 380 nm and emission wavelength of 460 nm for 15 min of continuous measurement with a 30-s interval reading. The fluorogenic substrates used for cathepsin S and legumain were Z-VVR-AMC and Z-AAN-AMC (Bachem, Bubendorf, Switzerland), respectively. The inhibitors used for cathepsin S and legumain were Z-FL-COCHO (Sigma-Aldrich, CA, USA) and Ac-YVAD-CMK (Bachem), respectively^11.

Bet_v_1 [5] = biological target: T1, Bet_v_1; experiment: LPS pull-down assay; format: binding, Betula verrucosa; settings: LPS immobilized on Strep‐Tactin Sepharose beads
Description: To investigate whether Bet v 1 binds LPS, a pull-down assay using biotinylated ultrapure E. coli O111:B4 LPS (InvivoGen, San Diego, CA, USA) was performed as previously described.^3 In short, biotinylated LPS was immobilized on Strep-Tactin Sepharose beads (IBA Lifesciences, Göttingen, Germany) and incubated with Bet v 1 for 20 min at room temperature. Unbound protein was washed off and beads were analyzed by SDS-PAGE. As control, the individual components (Bet v 1, biotinylated LPS and Strep-Tactin Sepharose beads), and Bet v 1+beads to exclude unspecific binding, were analyzed.

[6] = Bet v 1 immobilized on chip, ligands in 5 mM sodium phosphate buffer pH 7.4, read-out: Binding affinity K d (SAW)
[7] = Fig. S1 sensorgrams, read-out: Kd (SAW, Fig. S1)

Molecule | processing (degradation) of Bet v 1 by legumain (Bet v 1 / human legumain) | processing (degradation) of Bet v 1 by cathepsin S [2] | NMR (binding confirmation, K d) (Bet_v_1 [4]) | specific binding to Bet v 1 (1H-15N HSQC spectra) (Bet_v_1 [4]) | Kd (Bet_v_1 [3]; [6]) [µM] | Kd (Bet_v_1 [3]; [7]) [µM] | also measured
O=S(=O)(O)c1cccc2cccc(Nc3ccccc3)c12 [ANS, 8‐anilinonaphthalene‐1‐sulfonic acid] | no detectable | no detectable |  |  |  |  | Kd (Bet_v_1 [1]): 18.5 µM; Kd (Bet_v_1 [3]; Binding affinity K d (SAW), Bet v 1 immobilized on chip, ligands in 5 mM sodium phosphate buffer pH 7.4): 32.7 µM; Kd (Bet_v_1 [3]; Kd (SAW, Fig. S1), Fig. S1 sensorgrams): 32.7 µM
CCCCCCCCCCCCCC(=O)O[C@H](CCCCCCCCCCC)CC(=O)O[C@@H]1[C@@H](NC(=O)C[C@@H](CCCCCCCCCCC)OC(=O)CCCCCCCCCCC)[C@H](OC[C@H]2O[C@H](OP(=O)(O)O)[C@H](NC(=O)C[C@H](O)CCCCCCCCCCC)[C@@H](OC(=O)C[C@H](O)CCCCCCCCCCC)[C@@H]2O)O[C@H](CO[C@]2(C(=O)O)C[C@@H](O[C@]3(C(=O)O)C[C@@H](O)[C@@H](O)[C@@H]([C@H](O)CO)O3)[C@@H](O)[C@@H]([C@H](O)CO)O2)[C@H]1OP(=O)(O)O [Kdo2, Kdo2‐Lipid A] |  |  | No significant interactions | No significant interactions | 380 | 380 | 
O=C1C[C@@H](c2ccc(O)cc2)Oc2cc(O)cc(O)c21 [Naringenin, naringenin] | minor | minor |  |  |  |  | 
CCC(O)/C=C/C1C(O)CC(O)C1CCCCCCCC(=O)O (stereo not shown) [PPF1, F1‐phytoprostanes] |  |  |  |  | 2.4 |  | cathepsin S activity with phytohormones structurally related to PPE1 (cathepsin S; 0.1 mmol/L, 15 min (Figure 4B)): did not inhibit
CCCCCCCCCCCCOS(=O)(=O)[O-].[Na+] [SDS, sodium dodecyl sulfate] | significantly accelerated | significantly accelerated |  |  |  |  | cathepsin S fluorogenic activity (cathepsin S; 10 nmol/L protease, 100 µmol/L ligand, 50 µmol/L substrate, pH 5.0, 2 mmol/L DTT (Figure 3A)): reduced the cleavage of fluorogenic substrates
lipopolysaccharide [LPS] |  |  | No significant interactions | No significant interactions | 185 | 185 | binding of Bet v 1 to biotinylated LPS (pull-down) (Bet_v_1 [5]): do not specifically bind
lipoteichoic acid [LTA] |  |  | No significant interactions | No significant interactions | 200 | 200 | 
